Test results reported in patent publication EP0108170A1, “3-Benzazepines as alpha-2 antagonists” (SMITHKLINE BECKMAN CORPORATION, priority 1982, dated 1984).

Experiments:
alpha2 = assay: prejunctional alpha2 antagonist activity, isolated superfused guinea pig left atrium (shift of clonidine concentration-response curve); type: cell-based
Protocol: Briefly, the heart is removed from a pentobarbital-anesthetized male guinea pig. The left atrium is removed, dissected free of extraneous tissue and mounted in a 2 ml. superfusion chamber. The tissue is paced at 60 pulse/minute and the sympathetic nerves excited at 6 minute intervals by field stimulation. The response to nerve stimulation is measured as the difference in contractile force between the basal contraction and peak contraction following a nerve stimulation. A concentration-response curve for clonidine (alpha2 agonist) is prepared by administering an increasing concentration of clonidine following each successive stimulation. The tissue is then superfused with the alpha2 antagonist to be tested for thirty minutes and the clonidine concentration-effect curve was repeated in the presence of antagonist. The receptor dissociation constant of the antagonist (KB) is defined as the antagonist concentration required to shift the log concentration-response curve of the agonist to the right by a factor of 2.

rabbit = assay: normal rabbit intraocular pressure determination (applanation pneumatonograph); type: in vivo; conditions: given systemically
[1] = system: normotensive and hypertensive rats; assay: antihypertensive activity in vivo, blood pressure in conscious cannulated rats; conditions: for effect on diastolic blood pressure: i.v. administration
Protocol: Cannulas are run intradermally so as to be externalized in the dorso-sacral area of either side and kept in place by wound clips. The rats are allowed to regain consciousness after being placed in a small animal restrainer. The arterial cannula is connected to a pressure transducer for constant blood pressure and heart rate monitoring. Drugs are administered either orally via gavage or i.v. via the femoral vein cannula at a rate of 0.06 ml./minute.
The above test is conducted on both normotensive and hypertensive rats. DOCA Salt hypertensive rats are prepared from male uninephrectomized Sprague-Dawley rats. The rats, approximately six weeks of age, are lightly anesthetized with ether and subcutaneously implanted with a 25 mg. deoxycorticosterone acetate pellet in the left dorso-sacral area..Six days later a second pellet is implanted in the right dorso-sacral area. These rats are fed a normal laboratory diet, but are given 1% saline - solution to drink in place of water. The rats are kept on the saline drinking water for 22-24 days.
The following table sets forth the effect of 6-chloro-2,3,4,5-tetrahydro-3-methyl-lH-3-benzazepine on blood pressure after i.v. administration to both normotensive and hypertensive rats.

Row | Compound | Kb (alpha2; isolated perfused guinea pig left atrium, antagonist concentration shifting clonidine curve to the right by a factor of 2) [nM] | effect on systemic blood pressure (rabbit) | effect on diastolic blood pressure ([1]; DOCA Salt hypertensive rats) | antihypertensive effect, dose dependence ([1]; comparison of the 0.5 mg./kg. and 1.0 mg./kg. doses, i.v.) | effect on diastolic blood pressure ([1]; normotensive rats) | effect on diastolic blood pressure ([1]; spontaneously hypertensive rats) | alpha2 antagonist activity relative to the 6-chloro derivative (alpha2; fraction of the activity of the 6-chloro derivative)
1 | CN1CCc2cccc(Cl)c2CC1 [6-chloro-2,3,4,5-tetrahydro-3-methyl-lH-3-benzazepine] | 13 | no significant effect | marked drop | dose- related | little effect | marked drop | –
2 | CN1CCc2ccc(Cl)cc2CC1 [7-chloro-2,3,4,5-tetrahydro-3-methyl-lH-3-benzazepine, reference compound] | – | – | – | – | – | – | about one tenth
